Counter-ions that a name gives are not always drawn.

The test has as its target T1, human ALX receptor (Homo sapiens, UniProt P25090).
T1 construct: expressed in transfected cells; host or cells: HEK293 (HEK293-hALXR-Gα16)
T1 sequence (P25090 1-351): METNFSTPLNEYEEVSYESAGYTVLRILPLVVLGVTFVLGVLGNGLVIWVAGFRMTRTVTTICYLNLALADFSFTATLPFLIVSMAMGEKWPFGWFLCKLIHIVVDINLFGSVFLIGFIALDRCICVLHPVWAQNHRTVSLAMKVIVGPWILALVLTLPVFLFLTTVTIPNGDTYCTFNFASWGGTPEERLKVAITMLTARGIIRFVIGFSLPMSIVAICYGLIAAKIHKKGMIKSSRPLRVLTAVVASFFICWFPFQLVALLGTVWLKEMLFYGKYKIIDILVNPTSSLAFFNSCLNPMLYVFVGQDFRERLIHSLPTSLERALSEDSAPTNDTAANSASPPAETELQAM
The test can be described thus: Intracellular calcium measurements (FLIPR) in HEK293-hALXR-Gα16 cells, agonistic activity. It is filed as cell-based. The following applies: values normalized to WKYMVm 10 nM. The gist of the method: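 HEK293 cells co-expressing human ALX receptor and Gα16, loaded with 1 μM Fluo-4 AM (60 min, 37 °C), then exposed to serially diluted compound. Peak fluorescence above baseline (ex 488/em 540 nm) was recorded after compound addition. Values were normalized to 10 nM WKYMVm as the high control, after subtracting the buffer-addition baseline.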
In the case of `Cc1cc(CNC(=O)[C@H]2[C@H](C(=O)OCCC(N)=O)[C@H]3CC[C@@H]2C32CC2)on1` [Example 65, (1S,2R,3R,4R)-[(3-Amino-3-oxopropyl) 2-(((3-methylisoxazol-5-yl)methyl)carbamoyl)spiro[bicyclo[2.2.1]heptane-7,1′-cyclopropane]-3-carboxylate]], the EC50 was determined as 107 nM. For `Cc1cc(CNC(=O)[C@H]2[C@H](C(=O)OCCC3CCNCC3(F)F)[C@H]3CC[C@@H]2C32CC2)on1` (stereo partly drawn) [Example 66, (1S,2R,3R,4R)-[(3,3-Difluoro-piperidin-4-yl)ethyl 2-(((3-methylisoxazol-5-yl)methyl)carbamoyl)spiro[bicyclo[2.2.1]heptane-7,1′-cyclopropane]-3-carboxylate]] the value was 113 nM; for `O=C(OCCCC(=O)N1CCCC1)[C@H]1[C@H](C(=O)Nc2ccc(Br)nc2)[C@@H]2CC[C@H]1C21CC1` [Example 67, (1S,2R,3R,4R)-[(4-Pyrrolidino-4-oxobutyl) 2-((6-bromopyridin-3-yl)carbamoyl)spiro[bicyclo[2.2.1]heptane-7,1′-cyclopropane]-3-carboxylate]], 125 nM.

In the case of `NC(=O)CCOC(=O)[C@H]1[C@H](C(=O)Nc2ccc(Br)nc2)[C@@H]2CC[C@H]1C21CC1` [Example 68, (1S,2R,3R,4R)-[(3-Amino-3-oxopropyl) 2-((6-bromopyridin-3-yl)carbamoyl)spiro[bicyclo[2.2.1]heptane-7,1′-cyclopropane]-3-carboxylate]], the EC50 worked out at 135 nM. As for `O=C(OCCOCCN1CC[C@H](F)C1)[C@H]1[C@H](C(=O)NCc2ccc(Br)cc2F)[C@@H]2CC[C@H]1C21CC1` [Example 69, (1S,2R,3R,4R)-[(S)-2-(2-(3-Fluoropyrrolidin-1-yl)ethoxy)ethyl 2-((4-bromo-2-fluorobenzyl)carbamoyl)spiro[bicyclo[2.2.1]heptane-7,1′-cyclopropane]-3-carboxylate]], the figure is 145 nM; as for `O=C(OCCN1CCNCC1)[C@H]1[C@H](C(=O)NCc2ccc(Br)cc2F)[C@@H]2CC[C@H]1C21CC1` [Example 71, (1S,2R,3R,4R)-[2-(piperazin-1-yl)ethyl 2-((4-bromo-2-fluorobenzyl)carbamoyl)spiro[bicyclo[2.2.1]heptane-7,1′-cyclopropane]-3-carboxylate]dihydrochloride], 162 nM.

For the compound `O=C(OCCC1CCNCC1)[C@H]1[C@H](C(=O)NCc2ccc(Br)cc2F)[C@@H]2CC[C@H]1C21CC1` [Example 72, (1S,2R,3R,4R)-[2-(Piperidin-4-yl)ethyl 2-((4-bromo-2-fluorobenzyl)carbamoyl)spiro[bicyclo[2.2.1]heptane-7,1′-cyclopropane]-3-carboxylate]hydrochloride], the EC50 turned out to be 262 nM. As for `O=C(OCCC1CCNCC1(F)F)[C@H]1[C@H](C(=O)Nc2ccc(Br)nc2)[C@@H]2CC[C@H]1C21CC1` (stereo partly drawn) [Example 73, (1S,2R,3R,4R)-[2-(3,3-Difluoro-piperidin-4-yl)ethyl 2-((6-bromopyridin-3-yl)carbamoyl)spiro[bicyclo[2.2.1]heptane-7,1′-cyclopropane]-3-carboxylate]], the figure is 270 nM; as for `O=C(OCCOCCN1CCC(F)(F)C1)[C@H]1[C@H](C(=O)Nc2ccc(Br)nc2)[C@@H]2CC[C@H]1C21CC1` [Example 75, (1S,2R,3R,4R)-[2-(2-(3,3-Difluoropyrrolidin-1-yl)ethoxy)ethyl 2-((6-bromopyridin-3-yl)carbamoyl)spiro[bicyclo[2.2.1]heptane-7,1′-cyclopropane]-3-carboxylate]], 403 nM; as for `O=C(OC1CCN(Cc2ccccc2)CC1)[C@H]1[C@H](C(=O)Nc2ccc(Br)nc2)[C@@H]2CC[C@H]1C21CC1` [Example 76, (1S,2R,3R,4R)-[1-Benzyl-piperidin-4-yl 2-((6-bromopyridin-3-yl)carbamoyl)spiro[bicyclo[2.2.1]heptane-7,1′-cyclopropane]-3-carboxylate]], 2060 nM. As for `CC(CC(F)(F)CN1CCCC1)OC(=O)[C@H]1[C@H](C(=O)Nc2ccc(Br)nc2)[C@@H]2CC[C@H]1C21CC1` (stereo partly drawn) [Example 77, (1S,2R,3R,4R)-[(4,4-Difluoro-5-(pyrrolidin-1-yl))pent-2-yl 2-((6-bromopyridin-3-yl)carbamoyl)spiro[bicyclo[2.2.1]heptane-7,1′-cyclopropane]-3-carboxylate]], the figure is 1750 nM. For `O=C(OCCCC(F)(F)CN1CCCC1)[C@H]1[C@H](C(=O)Nc2ccc(Br)nc2)[C@@H]2CC[C@H]1C21CC1` [Example 78, (1S,2R,3R,4R)-[(4,4-Difluoro-5-(pyrrolidin-1-yl))pent-1-yl 2-((6-bromopyridin-3-yl)carbamoyl)spiro[bicyclo[2.2.1]heptane-7,1′-cyclopropane]-3-carboxylate]] the value was 3740 nM.

Source of the values: patent US9187435B2, “Bridged Spiro[2.4]heptane ester derivatives” (Actelion Pharmaceuticals Ltd., priority 2010, dated 2015).
